Molecules are shown by their SMILES.

In one data set the test system is BaF3-EpoR-JAK2 cells. Description: Cytotoxicity assay, BaF3-EpoR-JAK2 cells (CellTiter-Glo). It counts as cell-based. The settings on record: 72 h; 3 days incubation, 1 ng/ml IL-3, CellTiter-Glo. On the procedure:
The inhibitory effects of example compounds on the activity of BaF3-EpoR-JAK2 and BaF3-EpoR-JAK2/V617F cells were determined.
Materials and reagents: RPMI-1640 medium (GIBCO, Cat. No. A10491-01), fetal bovine serum (GIBCO, Cat. No. 10099-141), antibiotics (GIBCO, Cat. No. 10010-031), IL-3 (CST, Cat. No. 8923SF), phosphate buffer solution PBS (GIBCO, Cat. No. 10010-0312), penicillin-streptomycin (GIBCO, Cat. No. 15140-122);
Cell lines: BaF3-EpoR-JAK2 cells (Pharmaron), BaF3-EpoR-JAK2/V617F cells (Pharmaron), live cell assay kit CellTiter-Glo4 (Promega, Cat. No. G7572), 96-well black-wall clear flat-bottom cell culture plate (Corning, Cat. No. 3340).
(§1) Assay method: 1. Preparation of cell plates. BaF3-EpoR-JAK2 cells and BaF3-EpoR-JAK2/V617F cells were seeded in 96-well plates, respectively, and 1 ng/ml IL-3 was added to Ba/F3 cells. The cell plates were placed in a carbon dioxide incubator for overnight culture. 2. The test compounds were dissolved in DMSO and subjected to 3-fold gradient dilution, 9 compound concentrations were obtained in duplicate. 3. Treatments of Cells with Compounds. The compounds were transferred to cell plates, and the starting concentration of the compounds is 10 μM. The cell plates were incubated in a carbon dioxide incubator for 3 days. 4. Detection. A CellTiter-Glo reagent was added to the cell plates and incubated for 30 minutes at room temperature to stabilize the luminescence signal. Reading was obtained using a PerkinElmer Envision multi-label analyzer.
In general terms: ATP-based viability assays read luminescence as a measure of living cells.

Data set [1] can be described thus: Metabolic stability evaluation, rat liver microsome experiment. Format: in vitro ADME. The settings on record: liver microsomes, pH 7.4, 1 μM compound, 0.5 mg/mL protein, 37° C.; for half-life at 1 μM: read-out: Rat liver microsome experiment t1/2. On the procedure:
(§2) Microsomal experiment: human liver microsomes: 0.5 mg/mL, Xenotech; rat liver microsomes: 0.5 mg/mL, Xenotech; mouse liver microsomes: 0.5 mg/mL, Xenotech; coenzyme (NADPH/NADH): 1 mM, Sigma Life Science; magnesium chloride: 5 mM, 100 mM phosphate buffer (pH 7.4).
(§3) Preparation of a stock solution: A certain amount of the powder of the example compounds was accurately weighed and dissolved in DMSO to a 5 mM concentration.
(§4) Preparation of phosphate buffer (100 mM, pH 7.4): 150 mL of a pre-prepared 0.5 M potassium dihydrogen phosphate and 700 mL of a pre-prepared 0.5 M dipotassium hydrogen phosphate were mixed. The mixture was then adjusted to pH 7.4 with a 0.5 M dipotassium hydrogen phosphate solution. The mixture was diluted 5-fold with ultrapure water before use, and magnesium chloride was added to obtain a phosphate buffer (100 mM) containing 100 mM potassium phosphate, 3.3 mM magnesium chloride, and a pH of 7.4.
(§5) A solution of NADPH regeneration system (containing 6.5 mM NADP, 16.5 mM G-6-P, 3 U/mL G-6-P D, 3.3 mM magnesium chloride) was prepared and placed on wet ice before use.
(§6) Preparation of a stop solution: an acetonitrile solution containing 50 ng/mL propranolol hydrochloride and 200 ng/mL tolbutamide (internal standard). 25057.5 μL of phosphate buffer (pH 7.4) was added into a 50 mL centrifuge tube, 812.5 μL of human liver microsomes, rat liver microsomes and mouse liver microsomes were then added into the 50 mL centrifuge tube, respectively, and the mixtures were mixed evenly to obtain liver microsome dilutions with a protein concentration of 0.625 mg/mL. Incubation of samples: The stock solutions of the corresponding compounds were diluted to 0.25 mM with an aqueous solution containing 70% acetonitrile, respectively, and used as working solutions ready for use. 398 μL of dilutions of human liver microsomes or rat liver microsomes or mouse liver microsome were added to 96-well incubation plates (N=2), and then 2 μL of 0.25 mM working solutions were added and mixed, respectively.
(§7) Determination of metabolic stability: 300 μL of a pre-cooled stop solution was added to each well of a 96-well deep well plate and placed on ice as a stop plate. The 96-well incubation plate and the NADPH regeneration system were placed in a 37° C. water bath, shaken at 100 rpm, and pre-incubated for 5 min. 80 μL of an incubation solution was taken from each well of the incubation plate and added to the stop plate, mixed evenly, and replenished with 20 μL of NADPH regeneration system solution as a 0 min sample. 80 μL of NADPH regeneration system solution was then added to each well of the incubation plate to start the reaction, and timing was started. […] 100 μL of the reaction solution was taken at 10, 30, and 90 min after reaction, respectively, added to the stop plate, and vortexed for 3 minutes to terminate the reaction. The stop plate was centrifuged for 10 min at 5000×g at 4° C. 100 μL of the supernatant was added to a 96-well plate to which 100 μL of distilled water was previously added, mixed evenly, and analyzed by LC-MS/MS.
(§8) Data analysis: The peak areas of the corresponding compounds and internal standard were detected by LC-MS/MS system, and the ratio of the peak areas of the compounds to the internal standard was calculated.
On the technique in general: Microsomes from liver hold many membrane-bound enzymes, among them those of drug oxidation.

Data set [2] relates to BaF3-EpoR-JAK2/V617F cells. Put plainly: Cytotoxicity assay, BaF3-EpoR-JAK2/V617F cells (CellTiter-Glo). Format: cell-based. The following applies: 72 h; 3 days incubation, 1 ng/ml IL-3, CellTiter-Glo. On the procedure: as §1, with “BaF3-EpoR-JAK2 cells and BaF3-EpoR-JAK2/V617F cells were seeded in 96-well plates, respectively, and 1 ng/ml IL-3 was added to Ba/F3 cells.” left out

Data set [3] in a line: Metabolic stability evaluation, mouse liver microsome experiment. It counts as in vitro ADME. The settings on record: liver microsomes, pH 7.4, 1 μM compound, 0.5 mg/mL protein, 37° C.; for half-life at 1 μM: read-out: Mouse liver microsome experiment t1/2. On the procedure: as §2, §3, §4, §5, §6, §7, §8
The nature of data set [4]: Metabolic stability evaluation, human liver microsome experiment. It counts as in vitro ADME. The settings on record: liver microsomes, pH 7.4, 1 μM compound, 0.5 mg/mL protein, 37° C.; for half-life at 1 μM: read-out: Human liver microsome experiment t1/2. As for the experimental part: as §2, §3, §4, §5, §6, §7, §8
Data set [5] can be described thus: Rat pharmacokinetic experiment. The following applies: male Sprague-Dawley rats, single dose 3 mg/kg intravenously, 10 mg/kg orally. Format: in vivo. As for the experimental part:
6 male Sprague-Dawley rats (7-8 weeks old, and weighted approximately 210 g) were divided into 2 groups with 3 rats in each group. The rats were intravenously or orally administered a single dose of compound (3 mg/kg intravenously, 10 mg/kg orally) to compare pharmacokinetic differences.
The rats were raised on standard food and water. Fasting was started 16 hours before the test. The drug was dissolved with PEG400 and dimethyl sulfoxide. The blood samples were collected from eyelids at the time points of 0.083 hours, 0.25 hours, 0.5 hours, 1 hour, 2 hours, 4 hours, 6 hours, 8 hours, 12 hours, and 24 hours after administration.
Rats were briefly anesthetized after inhalation of diethyl ether and 300 μL of blood sample was collected from the eyelids into test tubes. There was 30 μL of 1% heparin salt solution in the test tube. Tubes were dried at 60° C. overnight before use. After the blood sample was collected at the last time point, the rats were sacrificed after ether anesthesia.
Immediately after the collection of the blood sample, the test tube was gently inverted at least 5 times to ensure sufficient mixing and then placed on ice. […] The concentration of the compound disclosed herein in plasma was determined by LC-MS/MS. The pharmacokinetic parameters were calculated based on the drug concentration in blood of each animal at different time points.

The IC50 is the concentration that inhibits the measured activity by half. A high value points to weaker potency. For orientation: microsomal CLint means the rate of metabolic loss divided by the concentration. With `[2H]C([2H])([2H])C(NS(=O)(=O)c1cccc(Nc2nc(Nc3ccc(OCCN4CCCC4)cc3)ncc2C)c1)(C([2H])([2H])[2H])C([2H])([2H])[2H]` [Compound T-4, 3-((5-methyl-2-((4-(2-(pyrrolidin-1-yl)ethoxy)phenyl)amino)pyrimidin-4-yl)amino)-N-(2-(methyl-d3)propan-2-yl-1,1,1,3,3,3-d6)benzenesulfonamide], the IC50 in the data set with BaF3-EpoR-JAK2 cells stood at 587 nM; in data set [2] it was 238 nM. Moreover, the microsomal CLint at 1 μM in data set [1] worked out at 76.6 µL/min/mg; in data set [3], 194 µL/min/mg. For the same compound, the values for the half-life at 1 μM in data set [1] and in data set [3] were 18.1 min and 7.1 min, respectively.
In the case of `[2H]C([2H])(Oc1ccc(Nc2ncc(C)c(Nc3cccc(S(=O)(=O)NC(C)(C)C)c3)n2)cc1)C([2H])([2H])N1CCCC1` [Compound T-1, N-(tert-butyl)-3-((5-methyl-2-((4-(2-(pyrrolidin-1-yl)ethoxy-1,1,2,2-d4)phenyl)amino)pyrimidin-4-yl)amino)benzenesulfonamide], the IC50 in the data set on BaF3-EpoR-JAK2 cells turned out to be 536 nM; in data set [2], 206 nM. Moreover, the microsomal CLint at 1 μM in data set [1] is 73.9 µL/min/mg; in data set [4] it was 6.8 µL/min/mg; in data set [3] it was 157 µL/min/mg. For the same compound, the half-life at 1 μM in data set [1] was 18.7 min; in data set [4] it was 203 min; in data set [3], 8.8 min.
Consider `[2H]c1nc(Nc2ccc(OCCN3CCCC3)cc2)nc(Nc2cccc(S(=O)(=O)NC(C)(C)C)c2)c1C([2H])([2H])[2H]` [Compound T-2, N-(tert-butyl)-3-((5-(methyl-d3)-2-((4-(2-(pyrrolidin-1-yl)ethoxy)phenyl)amino)pyrimidin-4-yl-6-d)amino)benzenesulfonamide], for which half-maximal inhibition in the data set with BaF3-EpoR-JAK2 cells (IC50) required 725 nM. The compound also showed an IC50 in data set [2] of 196 nM. Besides, in data set [3], the microsomal CLint at 1 μM was determined as 174 µL/min/mg and the half-life at 1 μM was 8 min.
Take `Cc1cnc(Nc2ccc(OCCN3CCCC3)cc2)nc1Nc1cccc(S(=O)(=O)NC(C)(C)C)c1` [Fedratinib, N-(tert-butyl)-3-((5-methyl-2-((4-(2-(pyrrolidin-1-yl)ethoxy)phenyl)amino)pyrimidin-4-yl)amino)benzenesulfonamide, reference compound]: the IC50 came out at 653 nM in the data set on BaF3-EpoR-JAK2 cells and 211 nM in data set [2]. For the same compound, the intrinsic clearance (microsomal CLint) at 1 μM in data set [1] turned out to be 81.3 µL/min/mg; in data set [4] it was 12.5 µL/min/mg; in data set [3], 238 µL/min/mg. Further, the half-life at 1 μM in data set [1] worked out at 17 min; in data set [4], 111 min; in data set [3], 5.8 min. In data set [5], the Oral availability is listed as 7.24%.
In the case of `[2H]C([2H])([2H])C(C)(NS(=O)(=O)c1cccc(Nc2nc(Nc3ccc(OCCN4CCCC4)cc3)ncc2C)c1)C([2H])([2H])[2H]` [Compound T-3, 3-((5-methyl-2-((4-(2-(pyrrolidin-1-yl)ethoxy)phenyl)amino)pyrimidin-4-yl)amino)-N-(2-methylpropan-2-yl-1,1,1,3,3,3-d6)benzenesulfonamide], the IC50 was 604 nM in the data set with BaF3-EpoR-JAK2 cells and 244 nM in data set [2]. Also, the microsomal CLint at 1 μM in data set [1] stood at 80.4 µL/min/mg; in data set [3] it was 206 µL/min/mg. Further, the half-life at 1 μM in data set [1] was found to be 17.2 min; in data set [3] it was 6.7 min.
Turning to `[2H]C1([2H])N(CCOc2ccc(Nc3ncc(C)c(Nc4cccc(S(=O)(=O)NC(C)(C)C)c4)n3)cc2)C([2H])([2H])C([2H])([2H])C1([2H])[2H]` [Compound T-5, N-(tert-butyl)-3-((5-methyl-2-((4-(2-(pyrrolidin-1-yl-d8)ethoxy)phenyl)amino)pyrimidin-4-yl)amino)benzenesulfonamide], the IC50 was 690 nM in the data set with BaF3-EpoR-JAK2 cells and 269 nM in data set [2]. Also, the figures for the microsomal CLint at 1 μM in data set [1], in data set [4] and in data set [3] were 77 µL/min/mg, 11.5 µL/min/mg and 158 µL/min/mg, respectively. Also, the half-life at 1 μM was found to be 18 min in data set [1], 121 min in data set [4] and 8.8 min in data set [3]. The compound also yielded an Oral availability in data set [5] of 7.48%.

(Values after patent US11384069B2, “Diphenylaminopyrimidine compound for inhibiting kinase activity” (Shenzhen TargetRx, Inc., priority 2018, dated 2022).)
